Series [1] concerns C. albicans strain (CA-6). Nature of the series: In vitro candidacidal CFU assay. It counts as cell-based, Candida albicans. The note with it: 100 µg/ml, CA-6 cells. The protocol: The origin and characteristics of the highly virulent C. albicans strain (CA-6) used in this study have been previously described. The culture was maintained by serial passages on Sabouraud agar (BioMérieux, Lyon, France). The yeast cells were harvested by suspending a single colony in saline, washed twice, counted in a hemocytometer and adjusted to the desired concentration.
The in vitro activity against CA-6 cells of mAb MoA synthetic CDRs at the concentration of 100 µg/ml was evaluated by a conventional Colony Forming Unit (CFU) assay as described elsewhere.

For a further series, the system named is Akt. The series can be described thus: Phospho-Akt Western blotting in PM. It counts as cell-based, mouse (Balb/c). The note with it: PM 3×10^6/ml, 10 µg/ml, 1 h, Western blot, with respect to NC and SP, n = 5. The protocol: (§1) After incubation, cells were washed and lysated with Mammalian protein extraction reagent (M-PER) in the presence of protease and phosphatase inhibitors (all from Pierce, Rockford, IL). Protein concentration was determined with a BCA protein Assay Reagent kit (Pierce). The lysates (30 µg of each sample) were separated by sodium dodecyl-sulfate-10% PAGE, transferred to a nitrocellulose membrane (Pierce) for 1 h at 100 V in a blotting system (Bio-Rad) for Western Blot analysis, and the membranes were incubated over-night with rabbit polyclonal Abs to phospho-Akt (pAkt; dilution 1/1000), phospho-IkBα (pIkBα; dilution 1/1000) (all from Cell Signalling Technology, Beverly, MA) and rabbit polyclonal Ab to TLR-4 (dilution 1/200) (Santa Cruz Biotechnology Inc.) in blocking buffer. […] Immunoreactive bands were visualized and quantified by Chemidoc Instrument (Bio-Rad). In particular, a quantitative analysis of the region of interest drawn around the outer edge of the band, was performed based on the guidelines for the use of the Chemidoc Instrument (Bio-Rad). […] All the parallelograms that form a band create one unique three-dimensional solid structure on which the volume is calculated. […]
(In general: Immunoblotting shows a protein as a band on a membrane.)

A further series has as its system TLR-4 gene. The series can be described thus: TLR-4 gene expression in PM (quantitative RT-PCR). Particulars: PM 1×10^6/ml, 10 µg/ml, qPCR normalized against GADPH, n = 5. Type of series: cell-based, mouse (Balb/c). The protocol: After incubation, cells were lysed using Trizol reagent (Invitrogen, Carlsbad, CA), and total RNA was extracted. The reverse transcriptase (RT) reaction was performed using Moloney murine leukaemia virus reverse transcriptase (M-MLV RT), as described in the manufacturer's instructions (Invitrogen).
TNF-α, TLR-4, and GADPH clones for use as standards were prepared by PCR from cDNA derived from PM and cloned into p-Drive vector (Qiagen, S.p.A., Milano, Italy). These were verified by sequence analysis. Plasmid DNA was diluted 10-fold and the starting concentration for the dilution series was 10^8 gene copies/µl.
For each target gene, primers were selected using the Beacon Designer software (Bio-Rad, Hercules, CA). Real-time RT-PCR (quantitative RT-PCR) was performed in 96-well PCR plates using the SYBR green (all from BioRad). For real-time PCR reaction 100 ng/µl of reverse-transcribed RNA was used and cDNA was normalized according to GADPH as an internal NC gene. Amplification conditions were the same for TNF-α, TLR-4 and GADPH mRNAs assayed: 3 min at 95°C, 40 cycles of 10 s at 95°C and 30 s at 62°C. For the Melt Curve, the amplification condition was: 1 min at 50°C and 90 cycles of 10 s at 50°C. The experiments were performed using the iCycler IQ Multicolor Real-time PCR Detection System (BioRad).

The subject of the next series is TLR-4. Nature of the series: TLR-4 protein Western blotting in PM. Type of series: cell-based, mouse (Balb/c). The note with it: PM 3×10^6/ml, 10 µg/ml, 1 and 3 h, Western blot, n = 5. Here is the method: as §1
In another series the test system is C. albicans (CA-6). The series can be described thus: Therapeutic activity against systemic candidiasis in mice. Type of series: in vivo, Balb/c mice. The note with it: 200 µg i.p. 4 h before, 100 µg 1 and 2 days after infection. Here is the method: Female, 8–10 weeks old, inbred Balb/c mice were obtained from Harlan Nossan Laboratories (Milan, Italy) and housed at the Animal Facilities of the University of Perugia, Perugia, Italy. Procedures involving animals and their care were conducted in conformity with national and international laws and policies.
Groups of 7 Balb/c mice were infected intravenously with 5×10^5 or 7.5×10^5 CA-6 cells suspended in 0.5 ml saline for evaluation of fungal clearance or mice survival, respectively.
Infected animals were given 200 µg of mouse VLCDR3 or VHCDR3 peptides intraperitoneally 4 h before infection, and 100 µg 1 and 2 days after infection for a total of 400 µg/mouse. Untreated animals served as a NC. Quantification of fungal growth at 5, 7, and 12 days after infection was assessed by plating serial dilutions of kidney homogenates onto Sabouraud agar. Animal survival was monitored for 30 days after infection.

In another series the test system is PM. Nature of the series: Uptake of biotin-labelled peptide by PM (flow cytometry). Particulars: 10 µg/ml, 37°C, FACScan, n = 7. For orientation: A flow cytometer gives signals particle by particle.

On to GQYGNLWFAY [VHCDR3], for which the “candidacidal effect in vitro” value in series [1] was “ineffective”. Besides, the “Akt phosphorylation (pAkt normalized against Akt)” value with Akt is recorded as “increased activation of pAkt”. For the same sequence, the “TLR-4 gene expression, 1 h” value with TLR-4 gene (1 h) is reported as “significant increase”. For the same sequence, the “TLR-4 gene expression, 6 h” value with TLR-4 gene (6 h) is given as “declined”. In addition, the “TLR-4 protein (normalized against actin)” value with TLR-4 is on record as “significant up-regulation”. For the same sequence, the “CFU recovery from kidneys” value in the series with C. albicans (CA-6) (5×10^5 CA-6 cells i.v., 5, 7 and 12 days after infection, n = 7) was “impressive decrease”. In addition, the “survival of infected mice” value in the series on C. albicans (CA-6) (7.5×10^5 CA-6 cells i.v., 30 days, vs untreated or VLCDR3-treated, Log rank P<0.05, n = 7) is given as “significant increase in survival”. Moreover, the “kinetics of uptake by PM (MFI and percentage of positive cells), 6 and 18 h” value with PM (6 and 18 h incubation) was “persisted”. The “kinetics of uptake by PM (MFI and percentage of positive cells), 1 h” value in the series with PM (1 h incubation) is recorded as “high level”. Also, the “kinetics of uptake by PM (MFI and percentage of positive cells), 72 h” value in the series on PM (72 h incubation) is reported as “negligible levels”.

The values above are taken from publication PMC2781551, “Antibody Complementarity-Determining Regions (CDRs): A Bridge between Adaptive and Innate Immunity” (PLoS ONE, 2009).
